Reference: patent publication US20140005281A1, “Method of Predicting Increased Risk of Suffering Statin-induced Adverse Drug Reactions” (priority 2012, published 2014)

Columns and labels:
[1] = test system: αC418W and WT mice; test: GBHA stain for end-plate (NMJ) calcium overload, tibialis anterior muscle
From the text: (§1) Serial cryosections of tibialis anterior muscle from statin-treated αC418W and WT mice were stained for calcium deposits (via GBHA) and also for cholinesterase to localize end-plates. Looking at these in adjacent sections, we were able to measure the percent of calcium-positive NMJs as previously described.

[2] = Cholesterol measurement in muscle during statin treatment; format: in vivo, mice; conditions: after 3 days of statin treatment, 44 mg/kg daily oral gavage
Method: 800 μl of each sucrose gradient fraction were subjected to the Bligh-Dyer method for the extraction of lipids in solution. Briefly, 3.75 ml 1:2 (v/v) CHC13: MeOH were added to each sample, followed by 1.25 ml of CHCl3, and 1.25 ml of distilled water; after each addition, samples were vigorously vortexed. The organic phase of each sample was carefully extracted and dried under N2(g). Cholesterol was separated from other lipids on rhodamine 6G stained silica gel G plates with petroleum ether/diethyl ether (98:2, v/v) as the solvent system. The spots corresponding to cholesterol was extracted with petroleum ether:ethyl ether (2:3 v/v) and further assayed using the Wako cholesterol E Kit (Wako Chemicals USA, VA) according to the manufacturer's indications.

[3] = test system: caspase-3; conditions: mouse, in vivo
Method: A firefly luciferase-based assay was used to measure activity of caspase 3 (Caspase-Glo® 3/7, Promega). Muscles were homogenized (25 mM HEPES pH 7.5, 0.1% (v/v) Triton X-100, 5 mM MgCl2, 2 mM 1,4-dithiothreitol, 10 mM NH4Cl, 10 mM 3-methyladenine, 74 μM antipain, 0.15 μM aprotinin, 1.3 mM EDTA, 20 μM leupeptin, and 15 μM pepstatin). After homogenization, a 20 μg protein product was added to the luminometer in triplicates for the protease luminescence assay.
as §1

Question: With `CC(C)c1c(C(=O)Nc2ccccc2)c(-c2ccccc2)c(-c2ccc(F)cc2)n1CC[C@@H](O)C[C@@H](O)CC(=O)O` [atorvastatin, Atorvastatin calcium] as the molecule, how does the NMJ calcium overload ([1]; WT mice, statin treatment) read?
Answer: did not cause NMJ calcium overload

Question: And the “NMJ calcium overload (GBHA-positive end-plates), increase over control levels” value ([1]; αC418W mice, at 36 days of statin treatment)?
Answer: ~3 fold

Question: What about the total cholesterol levels [2] of the same molecule?
Answer: significantly lowered

Question: And the caspase-3 activity [3]?
Answer: did not show an increase

Question: What about the “caspase-3 activity compared with placebo-treated control group” value [3] of the same molecule?
Answer: remained unchanged
